Laboratory results from ChEMBL document CHEMBL1201862, “PubChem BioAssay data set” (2004).
Active and inactive are the calls of the source.

Assays:
[1] = target: T1, Small ubiquitin-related modifier 1 (Homo sapiens, UniProt P63165); test: SUMO1 protein interaction blockers, potency – biochemical, fluorescence polarization, uHTS hits, dose response (AID 624382); assay type: functional; conditions: read-out: IC50_Mean
[2] = target: T2, Carboxy-terminal domain RNA polymerase II polypeptide A small phosphatase 1 (Homo sapiens, UniProt Q9GZU7); test: CTDSP1 inhibitors, concentration-response, biochemical, absorbance readout, ultra-high-throughput screen actives (AID 540297); assay type: functional
T2 sequence (Q9GZU7 whole entry): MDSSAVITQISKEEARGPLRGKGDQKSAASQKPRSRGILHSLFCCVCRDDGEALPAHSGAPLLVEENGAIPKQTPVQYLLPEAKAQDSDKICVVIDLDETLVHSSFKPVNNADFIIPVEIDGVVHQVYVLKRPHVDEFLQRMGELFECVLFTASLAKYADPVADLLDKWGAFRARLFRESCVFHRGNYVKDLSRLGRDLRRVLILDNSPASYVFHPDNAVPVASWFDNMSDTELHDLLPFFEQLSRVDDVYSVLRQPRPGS

[3] = target: T1, Small ubiquitin-related modifier 1; test: SUMO1 protein-protein binding blockers, potency – biochemical, FRET, dose response (AID 624383); assay type: functional; conditions: read-out: IC50_Mean
[4] = target: T3, Voltage-gated N-type calcium channel alpha-1B subunit/Amyloid beta A4 precursor protein-binding family A member 1 (Homo sapiens, UniProt Q00975+Q02410); assay type: protein assay
[5] = target: T3, Voltage-gated N-type calcium channel alpha-1B subunit/Amyloid beta A4 precursor protein-binding family A member 1; assay type: protein assay; remark: listed apart in the source
[6] = target: Mu-type opioid receptor (Homo sapiens, UniProt P35372); assay type: functional, cell-based;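 further: U2OS cells with beta-arrestin recruitment to OPRM1 by beta-gal complementation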
[7] = target: 5-hydroxytryptamine receptor 2A (Mus musculus, UniProt P35363); assay type: functional, cell-based;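 further: CHO-K1 cells with tagged receptor and beta-arrestin; agonist potency measured as compound-induced activation of the receptor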
[8] = Luminescence Cell-Based Dose Retest to Confirm Inhibitors of Cancer Stem Cells. [Related pubchem assays (depositor defined):AID2717, AID2721]; assay type: functional, Homo sapiens; conditions: Homo sapiens
[9] = system: INS1; test: INS-1E survival protection against cytokine death – cell-based, luminescence, retest, dose response (AID 449756); assay type: functional; conditions: Rattus norvegicus;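 further: cell death triggered by IL-1 beta plus TNF-alpha plus IFN-gamma mixture; protective hits raise ATP signal compared with cytokine alone wells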
[10] = target: Nonstructural protein 1 (Influenza A virus, UniProt Q194T2); assay type: functional, Influenza A virus (A/California/07/2009(H1N1))
[11] = target: T4, Aminopeptidase N (Plasmodium falciparum FcB1/Columbia, UniProt O96935); test: malaria alanyl aminopeptidase activity blockers – biochemical, fluorogenic H-Leu-NHMec substrate, 1536-well (AID 1445); parameters: species or system Plasmodium falciparum 3D7, 3D7
T4 sequence (O96935 whole entry): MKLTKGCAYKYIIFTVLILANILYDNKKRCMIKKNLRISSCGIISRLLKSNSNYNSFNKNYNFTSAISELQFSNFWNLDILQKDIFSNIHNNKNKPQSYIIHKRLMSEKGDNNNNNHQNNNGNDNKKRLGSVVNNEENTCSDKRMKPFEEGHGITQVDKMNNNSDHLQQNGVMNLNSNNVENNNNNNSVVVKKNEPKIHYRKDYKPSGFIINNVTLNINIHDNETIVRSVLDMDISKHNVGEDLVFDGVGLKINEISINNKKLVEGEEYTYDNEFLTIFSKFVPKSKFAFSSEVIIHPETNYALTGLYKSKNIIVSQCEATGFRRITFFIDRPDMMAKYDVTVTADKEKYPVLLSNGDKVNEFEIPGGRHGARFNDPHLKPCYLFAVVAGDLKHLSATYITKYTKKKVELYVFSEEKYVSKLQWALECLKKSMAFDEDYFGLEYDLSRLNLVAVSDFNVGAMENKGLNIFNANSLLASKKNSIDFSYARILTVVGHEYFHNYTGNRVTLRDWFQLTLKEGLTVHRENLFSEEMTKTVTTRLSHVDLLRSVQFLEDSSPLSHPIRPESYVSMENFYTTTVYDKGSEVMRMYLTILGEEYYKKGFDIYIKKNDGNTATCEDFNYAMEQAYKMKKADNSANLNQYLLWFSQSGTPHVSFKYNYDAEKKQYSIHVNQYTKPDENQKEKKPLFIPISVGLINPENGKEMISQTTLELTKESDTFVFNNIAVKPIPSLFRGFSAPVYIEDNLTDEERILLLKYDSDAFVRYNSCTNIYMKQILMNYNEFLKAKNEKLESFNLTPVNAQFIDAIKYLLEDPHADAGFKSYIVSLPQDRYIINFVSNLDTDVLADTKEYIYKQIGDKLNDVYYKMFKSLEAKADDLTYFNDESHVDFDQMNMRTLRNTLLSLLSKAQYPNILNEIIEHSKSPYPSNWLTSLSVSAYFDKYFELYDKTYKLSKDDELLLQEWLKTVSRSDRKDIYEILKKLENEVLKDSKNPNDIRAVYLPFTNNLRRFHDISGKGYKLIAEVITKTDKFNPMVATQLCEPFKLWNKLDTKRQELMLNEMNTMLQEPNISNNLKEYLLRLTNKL

[12] = HEK-293T viability loss after treatment – luminescence, T-cell screen hits, cytotoxicity control for TCR NF-kB inhibitor project, dose response (AID 489026); assay type: functional, cell-based;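 further: cells exposed to compound about 14 hours before the viability readout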
[13] = target: T5, SUMO-activating enzyme (Homo sapiens, UniProt Q9UBT2); test: blockers of UBC9-mediated SUMO conjugation – biochemical, AlphaScreen, SUMOylation inhibitor project, confirmation (AID 2018); assay type: functional
[14] = target: T5, SUMO-activating enzyme; test: blockers of SAE1/SAE2–UBC9 SUMO transfer – biochemical, HTRF, uHTS, primary screen (AID 2006); assay type: protein-complex assay
[15] = P. falciparum Dd2 growth inhibitors, dose response, SYBR Green, cherry-picked samples (AID 1159567); assay type: functional, cell-based
[16] = toxicity to human hepatoma HepG2 cells – cell-based, cherry-picked samples, cytotoxicity control, dose response (AID 1159577); assay type: functional
[17] = target: Estrogen receptor beta (Homo sapiens, UniProt Q92731); test: blockers of SRC-3 recruitment to ERβ – biochemical, ELISA, streptavidin-HRP readout, orthogonal assay, confirmation (AID 1060)
[18] = target: T6, Estrogen receptor (Homo sapiens, UniProt P03372);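 further: potency for inhibiting coactivator peptide recruitment to the receptor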
T6 sequence (P03372 whole entry): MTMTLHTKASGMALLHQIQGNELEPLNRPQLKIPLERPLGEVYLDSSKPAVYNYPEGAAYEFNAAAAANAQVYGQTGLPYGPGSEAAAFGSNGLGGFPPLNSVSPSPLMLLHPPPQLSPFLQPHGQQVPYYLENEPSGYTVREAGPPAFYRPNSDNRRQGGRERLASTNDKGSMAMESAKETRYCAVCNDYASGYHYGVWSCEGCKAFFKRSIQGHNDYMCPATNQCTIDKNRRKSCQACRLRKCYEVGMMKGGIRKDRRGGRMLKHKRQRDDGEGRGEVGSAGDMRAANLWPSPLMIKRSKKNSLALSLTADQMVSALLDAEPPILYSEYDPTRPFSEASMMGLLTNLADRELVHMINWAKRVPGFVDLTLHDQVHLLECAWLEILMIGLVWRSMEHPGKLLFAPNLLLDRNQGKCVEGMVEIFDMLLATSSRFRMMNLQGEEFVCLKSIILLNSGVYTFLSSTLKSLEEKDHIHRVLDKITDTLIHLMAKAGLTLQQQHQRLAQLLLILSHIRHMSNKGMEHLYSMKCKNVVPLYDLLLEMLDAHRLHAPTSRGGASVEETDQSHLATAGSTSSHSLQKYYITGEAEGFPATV

[19] = loss of viability in HepG2 cells – cell-based, CellTiter-Glo, cherry-picked, cytotoxicity control for Shn3 inhibitor project, dose response (AID 624134); assay type: functional
[20] = non-specific 3'UTR reporter inhibition in Clone20-Shn3RL – cell-based, Renilla luciferase, cherry-picked, counter-screen for Shn3 inhibitor project, dose response (AID 624133); assay type: functional
[21] = reduction of Shn3 3'UTR-driven luciferase in osteoblasts – cell-based, Clone20 osteoblasts, firefly luciferase, cherry-picked, dose response (AID 624132); assay type: functional;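 further: firefly luciferase luminescence from reporter carrying the Shn3 3'UTR in osteoblasts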
[22] = alpha-synuclein stem-loop luciferase translation blockers – H4 neuroglioma cells, luminescence, confirmation (AID 1988); assay type: functional, cell-based
[23] = Luminescence Cell-Based Dose Response HTS to Identify Inhibitors of 5'UTR Stem-Loop Driven Prion Protein mRNA Translation in H4 Neuroglioblastoma Cells. [Related pubchem assays: 1827 (Project Summary), 1813 (Primary HTS)]; assay type: functional
[24] = luciferase reporter signal suppression in cells – H4 neuroglioma cells, luminescence, dose response (AID 1990); assay type: functional, cell-based

Chain of Mu-type opioid receptor (P35372 whole entry): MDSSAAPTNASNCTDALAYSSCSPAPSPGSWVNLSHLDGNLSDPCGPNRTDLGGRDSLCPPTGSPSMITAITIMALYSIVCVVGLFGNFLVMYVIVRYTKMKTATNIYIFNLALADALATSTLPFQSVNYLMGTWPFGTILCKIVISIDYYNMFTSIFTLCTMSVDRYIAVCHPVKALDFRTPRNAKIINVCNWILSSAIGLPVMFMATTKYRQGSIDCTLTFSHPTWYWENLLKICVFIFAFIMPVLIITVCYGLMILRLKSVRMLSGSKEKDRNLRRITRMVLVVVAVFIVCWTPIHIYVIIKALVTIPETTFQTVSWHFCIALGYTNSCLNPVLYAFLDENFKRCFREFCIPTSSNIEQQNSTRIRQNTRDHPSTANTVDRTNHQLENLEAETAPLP
T1 sequence (P63165 whole entry, the tested form may be a part): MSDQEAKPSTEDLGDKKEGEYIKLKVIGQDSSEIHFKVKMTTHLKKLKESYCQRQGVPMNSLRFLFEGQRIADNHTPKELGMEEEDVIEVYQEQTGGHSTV
Chain of 5-hydroxytryptamine receptor 2A (P35363 whole entry): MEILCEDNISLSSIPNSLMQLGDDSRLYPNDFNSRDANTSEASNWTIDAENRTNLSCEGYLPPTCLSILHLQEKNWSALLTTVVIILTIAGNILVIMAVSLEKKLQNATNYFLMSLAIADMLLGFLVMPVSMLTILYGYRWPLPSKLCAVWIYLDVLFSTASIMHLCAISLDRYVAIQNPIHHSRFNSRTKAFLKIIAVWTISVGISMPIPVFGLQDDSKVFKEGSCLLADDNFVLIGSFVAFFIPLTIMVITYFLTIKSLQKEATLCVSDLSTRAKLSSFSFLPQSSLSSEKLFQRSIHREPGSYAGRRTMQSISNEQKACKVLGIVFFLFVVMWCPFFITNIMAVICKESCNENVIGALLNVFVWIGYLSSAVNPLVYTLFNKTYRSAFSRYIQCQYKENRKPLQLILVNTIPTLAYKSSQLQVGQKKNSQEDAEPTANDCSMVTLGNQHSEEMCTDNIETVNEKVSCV
T3 sequence (Q00975 whole entry): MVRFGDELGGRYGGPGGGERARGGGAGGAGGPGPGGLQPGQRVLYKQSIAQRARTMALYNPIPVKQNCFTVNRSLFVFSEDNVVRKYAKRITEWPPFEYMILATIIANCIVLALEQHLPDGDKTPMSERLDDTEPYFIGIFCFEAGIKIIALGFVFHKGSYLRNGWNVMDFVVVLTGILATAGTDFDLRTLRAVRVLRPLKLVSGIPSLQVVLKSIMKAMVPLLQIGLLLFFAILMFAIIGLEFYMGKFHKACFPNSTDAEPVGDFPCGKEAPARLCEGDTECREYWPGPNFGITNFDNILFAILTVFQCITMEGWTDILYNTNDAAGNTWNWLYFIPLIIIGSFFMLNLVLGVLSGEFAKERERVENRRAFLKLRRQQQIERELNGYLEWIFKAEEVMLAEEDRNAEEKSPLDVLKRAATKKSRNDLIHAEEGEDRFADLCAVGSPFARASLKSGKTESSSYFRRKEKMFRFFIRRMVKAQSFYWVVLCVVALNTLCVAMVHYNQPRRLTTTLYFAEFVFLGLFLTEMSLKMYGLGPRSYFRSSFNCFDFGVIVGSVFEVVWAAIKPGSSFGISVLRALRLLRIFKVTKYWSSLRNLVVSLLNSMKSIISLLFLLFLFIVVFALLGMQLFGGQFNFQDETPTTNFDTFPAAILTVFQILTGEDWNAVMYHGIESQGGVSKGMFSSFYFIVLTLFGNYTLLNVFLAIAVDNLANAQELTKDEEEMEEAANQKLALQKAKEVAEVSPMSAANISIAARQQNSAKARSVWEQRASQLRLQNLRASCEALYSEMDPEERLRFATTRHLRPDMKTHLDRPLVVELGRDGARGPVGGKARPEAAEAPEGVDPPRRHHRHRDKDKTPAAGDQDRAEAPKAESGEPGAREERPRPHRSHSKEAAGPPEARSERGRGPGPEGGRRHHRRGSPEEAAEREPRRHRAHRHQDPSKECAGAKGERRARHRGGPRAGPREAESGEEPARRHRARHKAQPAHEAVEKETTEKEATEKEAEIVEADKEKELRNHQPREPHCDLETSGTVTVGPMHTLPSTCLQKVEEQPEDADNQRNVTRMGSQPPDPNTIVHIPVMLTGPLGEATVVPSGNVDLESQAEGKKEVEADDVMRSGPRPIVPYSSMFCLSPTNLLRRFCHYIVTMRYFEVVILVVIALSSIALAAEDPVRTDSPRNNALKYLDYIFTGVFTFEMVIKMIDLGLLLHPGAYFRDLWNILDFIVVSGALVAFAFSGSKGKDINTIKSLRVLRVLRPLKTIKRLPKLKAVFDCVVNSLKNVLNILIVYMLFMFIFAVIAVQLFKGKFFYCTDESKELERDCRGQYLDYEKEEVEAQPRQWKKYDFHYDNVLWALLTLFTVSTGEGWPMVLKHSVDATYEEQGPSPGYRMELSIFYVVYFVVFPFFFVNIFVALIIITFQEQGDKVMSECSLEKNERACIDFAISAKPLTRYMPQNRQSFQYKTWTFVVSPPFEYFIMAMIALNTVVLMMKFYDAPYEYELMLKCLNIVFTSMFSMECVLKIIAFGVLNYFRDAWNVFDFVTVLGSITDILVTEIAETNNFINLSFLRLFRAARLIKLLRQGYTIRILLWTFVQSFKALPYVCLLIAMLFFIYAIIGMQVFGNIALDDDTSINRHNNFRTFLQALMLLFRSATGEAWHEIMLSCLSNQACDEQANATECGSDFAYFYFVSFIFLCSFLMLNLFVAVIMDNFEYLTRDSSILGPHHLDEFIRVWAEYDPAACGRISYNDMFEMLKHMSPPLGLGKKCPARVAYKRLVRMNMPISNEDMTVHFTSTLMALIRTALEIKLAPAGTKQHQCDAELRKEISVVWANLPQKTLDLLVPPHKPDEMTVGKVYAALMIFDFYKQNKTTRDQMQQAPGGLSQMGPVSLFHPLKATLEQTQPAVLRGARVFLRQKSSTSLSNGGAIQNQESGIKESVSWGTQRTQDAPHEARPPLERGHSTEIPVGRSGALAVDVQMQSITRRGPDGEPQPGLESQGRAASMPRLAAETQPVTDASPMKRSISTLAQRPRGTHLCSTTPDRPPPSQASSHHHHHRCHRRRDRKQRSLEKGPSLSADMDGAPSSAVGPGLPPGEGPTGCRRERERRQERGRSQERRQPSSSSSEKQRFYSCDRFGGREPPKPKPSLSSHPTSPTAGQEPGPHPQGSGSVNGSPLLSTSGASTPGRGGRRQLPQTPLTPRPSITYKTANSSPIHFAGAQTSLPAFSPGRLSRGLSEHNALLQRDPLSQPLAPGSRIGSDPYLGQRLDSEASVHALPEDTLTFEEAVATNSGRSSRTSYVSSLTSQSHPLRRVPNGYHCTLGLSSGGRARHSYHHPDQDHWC
T3 sequence (Q02410 whole entry): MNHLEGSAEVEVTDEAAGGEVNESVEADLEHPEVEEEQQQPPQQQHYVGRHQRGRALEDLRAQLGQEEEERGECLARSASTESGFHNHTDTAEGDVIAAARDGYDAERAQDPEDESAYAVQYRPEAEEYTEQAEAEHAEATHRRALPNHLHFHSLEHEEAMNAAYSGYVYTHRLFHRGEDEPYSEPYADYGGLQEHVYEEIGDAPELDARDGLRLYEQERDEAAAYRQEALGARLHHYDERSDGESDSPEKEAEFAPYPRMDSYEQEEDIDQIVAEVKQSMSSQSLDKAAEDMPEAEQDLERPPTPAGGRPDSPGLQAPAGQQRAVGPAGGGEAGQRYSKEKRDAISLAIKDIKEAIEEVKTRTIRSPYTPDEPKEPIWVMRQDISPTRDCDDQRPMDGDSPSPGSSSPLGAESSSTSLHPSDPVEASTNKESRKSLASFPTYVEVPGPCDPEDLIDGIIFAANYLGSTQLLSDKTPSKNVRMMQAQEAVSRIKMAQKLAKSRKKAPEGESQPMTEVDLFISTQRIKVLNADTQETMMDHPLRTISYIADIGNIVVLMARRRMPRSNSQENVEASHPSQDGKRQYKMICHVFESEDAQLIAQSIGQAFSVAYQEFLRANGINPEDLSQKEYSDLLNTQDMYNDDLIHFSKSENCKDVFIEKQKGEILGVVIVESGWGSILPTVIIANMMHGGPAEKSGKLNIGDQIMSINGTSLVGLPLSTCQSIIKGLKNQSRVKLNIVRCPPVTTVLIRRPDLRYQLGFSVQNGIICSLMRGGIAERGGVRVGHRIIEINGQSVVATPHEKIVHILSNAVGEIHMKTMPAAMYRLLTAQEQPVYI
Chain of Estrogen receptor beta (Q92731 whole entry): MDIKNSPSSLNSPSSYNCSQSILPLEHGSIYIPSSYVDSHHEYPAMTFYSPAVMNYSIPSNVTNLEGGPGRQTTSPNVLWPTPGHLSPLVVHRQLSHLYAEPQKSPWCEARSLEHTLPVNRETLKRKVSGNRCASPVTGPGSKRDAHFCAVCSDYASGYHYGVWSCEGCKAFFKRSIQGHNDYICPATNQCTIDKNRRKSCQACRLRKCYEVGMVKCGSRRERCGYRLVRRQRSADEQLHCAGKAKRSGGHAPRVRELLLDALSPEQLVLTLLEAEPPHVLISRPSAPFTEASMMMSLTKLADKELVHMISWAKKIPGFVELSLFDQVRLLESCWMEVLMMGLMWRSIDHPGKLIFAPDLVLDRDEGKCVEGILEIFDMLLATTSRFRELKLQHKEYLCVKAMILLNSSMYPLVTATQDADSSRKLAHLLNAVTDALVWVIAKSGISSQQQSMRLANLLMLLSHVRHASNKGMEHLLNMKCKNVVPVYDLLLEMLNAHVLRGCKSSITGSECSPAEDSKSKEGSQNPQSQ
Chain of Nonstructural protein 1 (Q194T2 whole entry): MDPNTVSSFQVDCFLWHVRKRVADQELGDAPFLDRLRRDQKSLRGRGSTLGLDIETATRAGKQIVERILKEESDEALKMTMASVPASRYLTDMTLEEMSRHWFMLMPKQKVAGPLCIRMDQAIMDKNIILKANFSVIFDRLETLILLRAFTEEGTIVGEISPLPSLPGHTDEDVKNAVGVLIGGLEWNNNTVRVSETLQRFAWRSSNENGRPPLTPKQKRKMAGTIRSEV

With O=C(O)c1cc(-c2ccco2)nn1-c1cccc(Cl)c1 the IC50 [1] was > 66.6 µM (inactive), the IC50 [2] was 5.39 µM (active) and the IC50 [3] was 27.1 µM (inactive).

For Cc1nc2sc(C(=O)OC(C)C)c(N)c2c(C)c1C, the IC50 [4] was 4.25 µM (active) and the IC50 [5] was > 50 µM (inactive).

In the case of O=C1C2CCCN2C(=O)N1CCCCN1CCN(c2ccccc2)CC1 (stereo unspecified), the EC50 [6] is reported as 92.4 µM (inactive) and the EC50 [7] is reported as 2.81 µM (active).

With COc1ccc(CN2CCN(C(=O)c3ccco3)CC2)cc1 the EC50 [6] was 92.5 µM (inactive) and the EC50 [7] was 1.53 µM (active).

With O=C(N/N=C(\Cc1ncc[nH]1)c1ccccc1)c1ccncc1 the AC50 [8] was 3.42 µM (active), the AC50 [9] was 7.38 µM (active) and the IC50 [10] was 2.46 µM (active). The IC50 [11] was 21.4 µM (active).

In the case of O=C(Nc1ccncc1)C1CCCN(S(=O)(=O)c2cccc3cccnc23)C1 (stereo unspecified), the IC50 [12] is reported as 67.5 µM (inactive).

For COc1ccc2[nH]c3c(=O)n(CCCC(=O)NC4CCC(C)CC4)c(=S)[nH]c3c2c1 (stereo unspecified), the IC50 [13] was 38.1 µM (active) and the IC50 [14] was 22.7 µM (active).

In the case of COc1ccc(C#Cc2ccc([C@H]3[C@@H](CO)N4CCCCN(Cc5ccncc5)C[C@H]34)cc2)cc1, the AC50 [15] is reported as 1.87 µM (active) and the AC50 [16] is reported as 10.7 µM (active).

In the case of O=C(c1ccc(CS(=O)(=O)c2ccccc2)o1)N1CCC2(CC1)OCCO2, the IC50 [17] is reported as 4.05 µM (not active).

In the case of O=C(COC(=O)c1ccc(Cl)c(S(=O)(=O)N2CCOCC2)c1)Nc1ccc2[nH]c(O)nc2c1, the IC50 [1] is reported as > 66.6 µM (inactive) and the IC50 [3] is reported as 15.8 µM (active).

With CCOC(=O)[N-]c1cn(N2CCOCC2)n[o+]1 [MOLSIDOMINE] the IC50 [18] was 24.7 µM (active).

With O=C(Nc1ccc(N2CCOCC2)cc1)c1ccc(Cl)c(S(=O)(=O)N2CCCCC2)c1 the AC50 [19] was 1.18 µM (active), the IC50 [12] was > 80 µM (inactive) and the AC50 [20] was 1.58 µM (active). The AC50 [21] was 810 nM (active).

In the case of Cc1cccc(OCC(O)CN2CCN(c3ccccn3)CC2)c1C (stereo unspecified), the EC50 [6] is reported as 92.5 µM (inactive), the EC50 [7] is reported as 25.4 µM (inactive) and the EC50 [22] is reported as > 120 µM (not active). The EC50 [23] was > 120 µM (not active) and the EC50 [24] was > 120 µM (not active).
